This is an account of results in patent US9611278B2 (Merck Sharp & Dohme Corp., priority 2013, dated 2017).

In the assay the target is T1, sGC α1/β1 heterodimer stably expressed in CHO-K1 cells (CHO-K1/sGC) (Homo sapiens, UniProt Q02108+Q02153).
T1 construct: expressed in transfected cells
T1 sequence (Q02108 1-690): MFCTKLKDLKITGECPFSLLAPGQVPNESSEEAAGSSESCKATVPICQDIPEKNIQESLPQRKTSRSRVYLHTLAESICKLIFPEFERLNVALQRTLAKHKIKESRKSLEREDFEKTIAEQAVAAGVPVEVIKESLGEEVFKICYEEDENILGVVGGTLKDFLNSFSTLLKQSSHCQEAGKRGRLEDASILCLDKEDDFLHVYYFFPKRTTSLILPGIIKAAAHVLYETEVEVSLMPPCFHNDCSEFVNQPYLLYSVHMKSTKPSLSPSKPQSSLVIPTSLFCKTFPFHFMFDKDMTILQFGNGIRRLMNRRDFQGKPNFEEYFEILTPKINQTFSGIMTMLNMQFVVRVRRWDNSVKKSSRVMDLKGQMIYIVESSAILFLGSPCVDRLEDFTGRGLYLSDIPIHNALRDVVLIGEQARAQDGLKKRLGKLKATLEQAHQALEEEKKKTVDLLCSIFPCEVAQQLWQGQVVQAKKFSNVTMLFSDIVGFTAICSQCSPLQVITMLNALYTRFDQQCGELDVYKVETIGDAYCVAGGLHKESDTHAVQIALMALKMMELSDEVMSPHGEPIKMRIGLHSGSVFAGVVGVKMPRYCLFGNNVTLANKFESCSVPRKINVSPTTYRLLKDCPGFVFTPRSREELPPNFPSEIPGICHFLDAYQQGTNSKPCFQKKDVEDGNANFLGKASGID
T1 sequence (Q02153 1-619): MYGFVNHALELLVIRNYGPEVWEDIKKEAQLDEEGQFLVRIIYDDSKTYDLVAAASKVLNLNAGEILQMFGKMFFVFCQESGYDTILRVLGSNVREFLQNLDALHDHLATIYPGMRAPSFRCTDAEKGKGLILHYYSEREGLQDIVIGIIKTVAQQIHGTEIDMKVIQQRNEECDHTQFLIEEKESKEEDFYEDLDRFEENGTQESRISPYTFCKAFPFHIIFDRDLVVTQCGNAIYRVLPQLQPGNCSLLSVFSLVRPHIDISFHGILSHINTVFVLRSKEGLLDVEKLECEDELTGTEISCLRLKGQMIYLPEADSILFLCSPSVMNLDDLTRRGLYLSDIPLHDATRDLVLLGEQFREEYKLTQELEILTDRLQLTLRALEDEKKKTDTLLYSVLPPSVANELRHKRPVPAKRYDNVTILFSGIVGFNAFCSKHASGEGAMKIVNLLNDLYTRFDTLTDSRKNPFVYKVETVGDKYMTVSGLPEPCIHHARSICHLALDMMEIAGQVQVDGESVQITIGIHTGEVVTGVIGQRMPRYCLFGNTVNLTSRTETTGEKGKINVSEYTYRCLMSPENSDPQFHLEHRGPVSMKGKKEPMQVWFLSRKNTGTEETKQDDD
The assay can be described thus: Cell-based sGC Functional Assay (CASA Assay). Particulars: for Emax: CHO-K1, activation as percentage of maximum cGMP production of Compound A (set to 100%), read-out: % Act.; for pEC50: inflection point of cGMP generation in CHO-K1/sGC cells, 4P fit, 1 hr at 37° C., read-out: IP; for % Act.: activation as percentage of maximum cGMP production of Compound A (set to 100%). From the text:
sGC is a heme-containing enzyme that converts GTP to secondary messenger cGMP. Increases in cGMP levels affect several physiological processes including vasorelaxation through multiple downstream pathways. […] Heme-dependent activators (HDAs) preferentially activate sGC containing a ferrous heme group. To determine the effect of sGC activators on enzyme activity, the CASA assay was developed to monitor the generation of cGMP in a cell line that stably expresses the heterodimeric sGC protein.
A CHO-K1 cell line stably expressing the sGC α1/β1 heterodimer was generated using a standard transfection protocol. CHO-K1 cells were transfected with plasmids pIREShyghsGCα1 and pIRESneo-hsGCβ1 simultaneously using FUGENE reagent. Clones that stably express both subunits were selected with hygromycin and neomycin for ˜2 weeks. Clone #7 was chosen for the assay and was designated CHO-K1/sGC. CHO-K1/sGC cells were maintained in F-K12 medium containing 10% heat-inactivated Fetal Bovine Serum (FBS), 100 μg/mL penicillin/streptomycin, 0.5 mg/mL hygromycin and 0.25 mg/mL G418. The cells were then cryopreserved in LN2. On the day of the assay, cells thawed and resuspended in EBSS Assay Buffer (EAB, Sigma, E3024) supplemented with 5 mM MgCl2, 10 mM HEPES (4-(2-hydroxyethyl)piperazine-1-ethanesulfonic acid) and 0.05% BSA (bovine serum albumin) and cell density was then adjusted to 4×10^5/mL with EAB. IBMX (3-isobutyl-1-methylxanthin, 0.5 mM) was added to inhibit degradation of cGMP. Compounds were diluted from DMSO stock solutions and added to the assay at a final DMSO concentration of 2.5%. Cells were incubated with compounds in the presence and absence of 1 μM of Diethylenetriamine/nitric oxide adduct (DETA-NO; Sigma, 17018) for 1 hr at 37° C. At the end of the incubation period, the reaction was terminated and the cells were lysed with the detection reagents from Cisbio Kits. The level of intracellular cGMP was determined using an HTRF-based assay kit (CisBio, 62GM2PEC), which detects the displacement of a fluorescence labeled cGMP from its specific antibody. The cGMP produced by test compounds was directly compared to the maximum cGMP production (this value was set to equal 100% activation.) of the published sGC-HDA Compound A:
(Example 1 in WO 2010/065275, published Jun. 10, 2010). The test compounds' activity were then expressed as a percentage of Compound A, the standard in every experiment. This percent activation was calculated either in the presence or absence of DETA-NO which was then plotted. IP and maximum fold induction was derived using ADA analysis software for 4P fit.

pEC50: −log10 of the molar value.

Consider `Cn1ncc2c(-c3nc(N)c4c(n3)NC(=O)C4(C)c3cn(C4CCC4)nn3)nc(CCC(F)(F)C(F)(F)F)nc21` (single isomer, unassigned) [Example 74, 4-Amino-5-(1-cyclobutyl-1H-1,2,3-triazol-4-yl)-5-methyl-2-(1-methyl-6-(3,3,4,4,4-pentafluorobutyl)-1H-pyrazolo[3,4-d]pyrimidin-4-yl)-5,7-dihydro-6H-pyrrolo[2,3-d]pyrimidin-6-one], for which the Emax came to 120% and the pEC50 is 7.11.
Take “4-Amino-5-ethyl-2-(1-methyl-6-(3,3,4,4,4-pentafluorobutyl)-1H-pyrazolo[3,4-d]pyrimidin-4-yl)-5-(1-propyl-1H-1,2,3-triazol-4-yl)-5,7-dihydro-6H-pyrrolo[2,3-d]pyrimidin-6-one [Example 73]”: the “% Act.” value was determined as 117% and the pEC50 is 6.38.
As to `[2H]C([2H])([2H])n1ncc2c(-c3nc(N)c4c(n3)NC(=O)C4(c3nnc(C4CCC4)o3)C3CC3)nc(CCC(F)(F)C(F)(F)F)nc21` (centres unmarked) [Example 46, 4-Amino-5-(5-cyclobutyl-1,3,4-oxadiazol-2-yl)-5-cyclopropyl-2-(1-(methyl-d3)-6-(3,3,4,4,4-pentafluorobutyl)-1H-pyrazolo[3,4-d]pyrimidin-4-yl)-5,7-dihydro-6H-pyrrolo[2,3-d]pyrimidin-6-one], the Emax worked out at 97% and the pEC50 is 6.59.
For `Cn1ccc2c(-c3nc(N)c4c(n3)NC(=O)C4(C)c3ccc(F)cn3)nc(CCC(F)(F)C(F)(F)F)nc21` (centres unmarked) [Example 85, 4-Amino-5-(5-fluoropyridin-2-yl)-5,7′-dimethyl-2′-(3,3,4,4,4-pentafluorobutyl)-5,7-dihydro-6H,7′H-[2,4′-bipyrrolo[2,3-d]pyrimidin]-6-one], in that order: 108% and 6.95.
For `Cc1nc(C2(C)C(=O)Nc3nc(-c4nc(CCC(F)(F)C(F)(F)F)nc5c4cnn5C)nc(N)c32)no1` (centres unmarked) [Example 20, 4-Amino-5-methyl-5-(5-methyl-1,2,4-oxadiazol-3-yl)-2-(1-methyl-6-(3,3,4,4,4-pentafluorobutyl)-1H-pyrazolo[3,4-d]pyrimidin-4-yl)-5,7-dihydro-6H-pyrrolo[2,3-d]pyrimidin-6-one], in that order: 132% and 6.99.
Consider `Cn1ncc2c(-c3nc(N)c4c(n3)NC(=O)C4(c3ccc(Cl)cn3)C3CC3)nc(CC3CC(F)(F)C3)nc21` (centres unmarked) [Example 31, 4-Amino-5-(5-chloropyridin-2-yl)-5-cyclopropyl-2-(6-((3,3-difluorocyclobutyl)methyl)-1-methyl-1H-pyrazolo[3,4-d]pyrimidin-4-yl)-5,7-dihydro-6H-pyrrolo[2,3-d]pyrimidin-6-one], for which the Emax is 169% and the pEC50 was 7.36.
For `CCCn1cc(C2(CC)C(=O)Nc3nc(-c4nc(CCC(F)(F)C(F)(F)F)nc5c4cnn5C)nc(N)c32)nn1` (single isomer, unassigned) [Example 72, 4-Amino-5-ethyl-2-(1-methyl-6-(3,3,4,4,4-pentafluorobutyl)-1H-pyrazolo[3,4-d]pyrimidin-4-yl)-5-(1-propyl-1H-1,2,3-triazol-4-yl)-5,7-dihydro-6H-pyrrolo[2,3-d]pyrimidin-6-one] the same measures were 121% and 6.30.
Regarding `CC(C)Cn1cc(C2(C)C(=O)Nc3nc(-c4nc(CCC(F)(F)C(F)(F)F)nc5c4cnn5C)nc(N)c32)nn1` (centres unmarked) [Example 70, 34-Amino-5-(1-isobutyl-1H-1,2,3-triazol-4-yl)-5-methyl-2-(1-methyl-6-(3,3,4,4,4-pentafluorobutyl)-1H-pyrazolo[3,4-d]pyrimidin-4-yl)-5,7-dihydro-6H-pyrrolo[2,3-d]pyrimidin-6-one], the Emax worked out at 132% and the pEC50 was 6.53.
Turning to `[2H]C([2H])([2H])n1ncc2c(-c3nc(N)c4c(n3)NC(=O)C4(c3nc(CC(C)(C)C(=O)O)cs3)C3CC3)nc(CCC(F)(F)C(F)(F)F)nc21` (centres unmarked) [Example 83, 3-(2-(4-Amino-5-cyclopropyl-2-(1-(methyl-d3)-6-(3,3,4,4,4-pentafluorobutyl)-1H-pyrazolo[3,4-d]pyrimidin-4-yl)-6-oxo-6,7-dihydro-5H-pyrrolo[2,3-d]pyrimidin-5-yl)thiazol-4-yl)-2,2-dimethylpropanoic acid], the Emax came out at 80% and the pEC50 was 6.10.
For `Cn1ncc2c(-c3nc(N)c4c(n3)NC(=O)C4(c3ccc(C(F)(F)F)cn3)C3CC3)nc(CC3CC(F)(F)C3)nc21` (centres unmarked) [Example 32, 4-Amino-5-cyclopropyl-2-(6-((3,3-difluorocyclobutyl)methyl)-1-methyl-1H-pyrazolo[3,4-d]pyrimidin-4-yl)-5-(5-(trifluoromethyl)pyridin-2-yl)-5,7-dihydro-6H-pyrrolo[2,3-d]pyrimidin-6-one], in that order: 113% and 7.23.
Consider `[2H]C([2H])([2H])n1ncc2c(-c3nc(N)c4c(n3)NC(=O)C4(C)c3cn(CC)nn3)nc(CCC(F)(F)C(F)(F)F)nc21` (centres unmarked) [Example 64, 4-Amino-5-(1-ethyl-1H-1,2,3-triazol-4-yl)-5-methyl-2-(1-(methyl-d3)-6-(3,3,4,4,4-pentafluorobutyl)-1H-pyrazolo[3,4-d]pyrimidin-4-yl)-5,7-dihydro-6H-pyrrolo[2,3-d]pyrimidin-6-one], for which the Emax was found to be 120% and the pEC50 is 6.94.
For `Cn1ncc2c(-c3nc(N)c4c(n3)NC(=O)C4(c3ncco3)C3CC3)nc(CCC(F)(F)C(F)(F)F)nc21` (centres unmarked) [Example 28, 4-Amino-5-cyclopropyl-2-(1-methyl-6-(3,3,4,4,4-pentafluorobutyl)-1H-pyrazolo[3,4-d]pyrimidin-4-yl)-5-(oxazol-2-yl)-5,7-dihydro-6H-pyrrolo[2,3-d]pyrimidin-6-one], in that order: 126% and 6.05.
For the compound `[2H]C([2H])([2H])n1ncc2c(-c3nc(N)c4c(n3)NC(=O)C4(c3nnc(C)o3)C3CC3)nc(CCC(F)(F)C(F)(F)F)nc21` (single isomer, unassigned) [Example 40B, 4-Amino-5-cyclopropyl-5-(5-methyl-1,3,4-oxadiazol-2-yl)-2-(1-(methyl-d3)-6-(3,3,4,4,4-pentafluorobutyl)-1H-pyrazolo[3,4-d]pyrimidin-4-yl)-5,7-dihydro-6H-pyrrolo[2,3-d]pyrimidin-6-one], the “% Act.” value stood at 68% and the pEC50 is 6.53.
